Assay results reported in patent publication US9598423B2 (BRISTOL-MYERS SQUIBB COMPANY, priority 2013, dated 2017).

Assays:
[1] = target: CK1δ (Homo sapiens (Human), UniProt P48730); assay: CK1δ kinase assay (Caliper LABCHIP electrophoretic separation of fluoresceinated peptide substrate and product); format: biochemical; conditions: 200 pM CK1δ, 50 μM ATP, 1.5 μM peptide substrate, 22 hours at room temperature; read-out: CK1δ (IC50)
Summary of the method: (§1)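 Eleven-concentration compound series in kinase reactions run for 22 hours at room temperature. Terminated with EDTA, with product conversion read by electrophoretic separation. Non-linear regression gave IC50.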

[2] = target: CK1ε (Homo sapiens (Human), UniProt P49674); assay: CK1ε kinase assay (Caliper LABCHIP electrophoretic separation of fluoresceinated peptide substrate and product); format: biochemical; conditions: 200 pM CK1ε, 50 μM ATP, 1.5 μM peptide substrate, 22 hours at room temperature; read-out: CK1ε (IC50)
Sequence of CK1ε (P49674 whole entry): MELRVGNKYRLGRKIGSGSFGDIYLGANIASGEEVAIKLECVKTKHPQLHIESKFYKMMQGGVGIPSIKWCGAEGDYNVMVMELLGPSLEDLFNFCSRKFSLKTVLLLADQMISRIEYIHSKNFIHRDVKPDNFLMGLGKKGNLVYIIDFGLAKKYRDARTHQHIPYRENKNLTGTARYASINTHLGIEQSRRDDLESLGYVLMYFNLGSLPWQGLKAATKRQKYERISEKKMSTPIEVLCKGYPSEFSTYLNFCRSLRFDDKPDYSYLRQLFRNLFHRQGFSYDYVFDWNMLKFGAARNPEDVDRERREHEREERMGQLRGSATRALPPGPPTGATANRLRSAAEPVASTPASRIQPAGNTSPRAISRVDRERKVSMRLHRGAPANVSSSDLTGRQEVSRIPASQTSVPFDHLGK
Summary of the method: as §1

Sequence of CK1δ (P48730 whole entry): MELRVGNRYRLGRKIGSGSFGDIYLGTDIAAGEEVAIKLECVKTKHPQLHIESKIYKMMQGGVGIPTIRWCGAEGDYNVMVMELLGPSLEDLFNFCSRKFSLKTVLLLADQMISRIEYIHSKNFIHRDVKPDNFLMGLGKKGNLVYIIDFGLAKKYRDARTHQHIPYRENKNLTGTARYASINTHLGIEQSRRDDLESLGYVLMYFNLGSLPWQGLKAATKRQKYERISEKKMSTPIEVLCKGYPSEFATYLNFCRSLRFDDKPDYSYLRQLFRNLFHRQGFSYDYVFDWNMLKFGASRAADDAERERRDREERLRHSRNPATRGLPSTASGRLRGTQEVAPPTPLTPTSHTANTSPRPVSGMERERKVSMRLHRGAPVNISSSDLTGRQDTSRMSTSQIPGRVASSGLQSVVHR

SMILES	IC50 [1] [nM]	IC50 [2] [nM]
N#Cc1ccc(NC(=O)N2CCn3nc(-c4ccc(F)c(F)c4)c(C(N)=O)c3C2)cc1C(F)(F)F [Compound 237, N^5-(4-Cyano-3-(trifluoromethyl)phenyl)-2-(3,4-difluorophenyl)-6,7-dihydropyrazolo [1,5-a]pyrazine-3,5(4H)-dicarboxamide]	0.01 to 10	0.01 to 10
NC(=O)c1c(-c2cncc(Cl)c2)nn2c1CN(C(=O)Nc1ccc(Cl)c(Cl)c1)CC2 [Compound 299, 2-(5-Chloropyridin-3-yl)-N^5-(3,4-dichlorophenyl)-6,7-dihydropyrazolo[1,5-a]pyrazine-3,5(4H)-dicarboxamide]	0.01 to 10	0.01 to 10
NC(=O)c1c(-c2cccc(F)c2)nn2c1CN(C(=O)NC1C[C@H]1c1ccccc1)CC2 (stereo in doubt) [Compound 44, 2-(3-Fluorophenyl)-N^5-((1R,2S)-2-phenylcyclopropyl)-6,7-dihydropyrazolo[1,5-a]pyrazine-3,5(4H)-dicarboxamide]	0.01 to 10	10 to 100
Cc1cc(NC(=O)N2Cc3c(C(N)=O)c(-c4ccc(F)c(Cl)c4)nn3CC23CC3)ccc1C#N [Compound 344, 2′-(3-Chloro-4-fluorophenyl)-N^5′-(4-cyano-3-methylphenyl)-4′H-spiro[cyclopropane-1,6′-pyrazolo[1,5-a]pyrazine]-3′,5′(7′H)-dicarboxamide]	0.01 to 10	0.01 to 10
CC(C)(C)NC(=O)N1CCn2nc(-c3cncc(F)c3)c(C(N)=O)c2C1 [Compound 113, N^5-(tert-Butyl)-2-(5-fluoropyridin-3-yl)-6,7-dihydropyrazolo[1,5-a]pyrazine-3,5(4H)-dicarboxamide]	10 to 100	100 to 2000
CNC(=O)c1c(-c2ccc(F)c(Cl)c2)nn2c1CN(C(=O)Nc1ccc(C#N)cc1)CC2 [Compound A64, 2-(3-Chloro-4-fluorophenyl)-N^5-(4-cyanophenyl)-N3-methyl-6,7-dihydropyrazolo[1,5-a]pyrazine-3,5(4H)-dicarboxamide]	100 to 2000	100 to 2000
N#Cc1ccc(NC(=O)N2CCn3nc(-c4ccc(F)c(Cl)c4)c(C(N)=O)c3C2)cc1C(F)(F)F [Compound 204, 2-(3-Chloro-4-fluorophenyl)-N^5-(4-cyano-3-(trifluoromethyl)phenyl)-6,7-dihydropyrazolo[1,5-a] pyrazine-3,5(4H)-dicarboxamide]	0.01 to 10	0.01 to 10
Cc1nc(-c2ccc(NC(=O)N3CCn4nc(-c5cccc(Cl)c5)c(C(N)=O)c4C3)cc2)cs1 [Compound A46, 2-(3-Chlorophenyl)-N^5-(4-(2-methylthiazol-4-yl)phenyl)-6,7-dihydropyrazolo[1,5-a]pyrazine-3,5(4H)-dicarboxamide]	0.01 to 10	0.01 to 10
CC(C)(OC(=O)N1CCC(NC(=O)N2CCn3nc(-c4cccc(F)c4)c(C(N)=O)c3C2)CC1)C(F)(F)F [Compound 101, 1,1,1-Trifluoro-2-methylpropan-2-yl 4-(3-carbamoyl-2-(3-fluorophenyl)-4,5,6,7-tetrahydropyrazolo[1,5-a]pyrazine-5-carboxamido)piperidine-1-carboxylate]	0.01 to 10	0.01 to 10
CCOc1cc(Cl)cc(-c2nn3c(c2C(N)=O)CN(C(=O)Nc2ccc(C#N)c(Cl)c2)CC3)c1 [Compound A61, N^5-(3-Chloro-4-cyanophenyl)-2-(3-chloro-5-ethoxyphenyl)-6,7-dihydropyrazolo[1,5-a]pyrazine-3,5(4H)-dicarboxamide]	0.01 to 10	0.01 to 10
NC(=O)c1c(-c2ccc(F)c(Cl)c2)nn2c1CN(C(=O)Nc1ccc(F)c(Cl)c1)CC2 [Compound 185, N^5,2-Bis(3-chloro-4-fluorophenyl)-6,7-dihydropyrazolo[1,5-a] pyrazine-3,5(4H)-dicarboxamide]	0.01 to 10	0.01 to 10
NC(=O)c1c(-c2cccc(F)c2)nn2c1CN(C(=O)Nc1ccc(Cl)cc1)CC2 [Compound 10, N^5-(4-Chlorophenyl)-2-(3-fluorophenyl)-6,7-dihydropyrazolo[1,5-a]pyrazine-3,5(4H)-dicarboxamide]	0.01 to 10	0.01 to 10
NC(=O)c1c(-c2cccc(F)c2)nn2c1CN(C(=O)Nc1cccc(F)c1)CC2 [Compound 77, N^5,2-Bis(3-fluorophenyl)-6,7-dihydropyrazolo[1,5-a]pyrazine-3,5(4H)-dicarboxamide]	0.01 to 10	0.01 to 10
CC(C)(C)c1cc(NC(=O)N2CCn3nc(-c4cccc(Cl)c4)c(C(N)=O)c3C2)ccc1C#N [Compound A42, N^5-(3-(tert-Butyl)-4-cyanophenyl)-2-(3-chlorophenyl)-6,7-dihydropyrazolo[1,5-a]pyrazine-3,5(4H)-dicarboxamide]	0.01 to 10	0.01 to 10
